According to publication PMC10252683, “Targeting USP-7 by a Novel Fluorinated 5-Pyrazolyl-Urea Derivative” (International Journal of Molecular Sciences, 2023):

Molecular target: T1, Ubiquitin Specific Protease 7 (USP-7) (Homo sapiens, UniProt Q93009)
T1 construct: gene USP7; recombinant USP-7 (BPS Bioscience kit #79256)
Assay: Ub-AMC fluorescence enzyme assay; supported by DARTS immunoblotting and t-LiP-MRM in HTLA-230 lysate
Assay type: biochemical

T1 sequence (Q93009 whole entry): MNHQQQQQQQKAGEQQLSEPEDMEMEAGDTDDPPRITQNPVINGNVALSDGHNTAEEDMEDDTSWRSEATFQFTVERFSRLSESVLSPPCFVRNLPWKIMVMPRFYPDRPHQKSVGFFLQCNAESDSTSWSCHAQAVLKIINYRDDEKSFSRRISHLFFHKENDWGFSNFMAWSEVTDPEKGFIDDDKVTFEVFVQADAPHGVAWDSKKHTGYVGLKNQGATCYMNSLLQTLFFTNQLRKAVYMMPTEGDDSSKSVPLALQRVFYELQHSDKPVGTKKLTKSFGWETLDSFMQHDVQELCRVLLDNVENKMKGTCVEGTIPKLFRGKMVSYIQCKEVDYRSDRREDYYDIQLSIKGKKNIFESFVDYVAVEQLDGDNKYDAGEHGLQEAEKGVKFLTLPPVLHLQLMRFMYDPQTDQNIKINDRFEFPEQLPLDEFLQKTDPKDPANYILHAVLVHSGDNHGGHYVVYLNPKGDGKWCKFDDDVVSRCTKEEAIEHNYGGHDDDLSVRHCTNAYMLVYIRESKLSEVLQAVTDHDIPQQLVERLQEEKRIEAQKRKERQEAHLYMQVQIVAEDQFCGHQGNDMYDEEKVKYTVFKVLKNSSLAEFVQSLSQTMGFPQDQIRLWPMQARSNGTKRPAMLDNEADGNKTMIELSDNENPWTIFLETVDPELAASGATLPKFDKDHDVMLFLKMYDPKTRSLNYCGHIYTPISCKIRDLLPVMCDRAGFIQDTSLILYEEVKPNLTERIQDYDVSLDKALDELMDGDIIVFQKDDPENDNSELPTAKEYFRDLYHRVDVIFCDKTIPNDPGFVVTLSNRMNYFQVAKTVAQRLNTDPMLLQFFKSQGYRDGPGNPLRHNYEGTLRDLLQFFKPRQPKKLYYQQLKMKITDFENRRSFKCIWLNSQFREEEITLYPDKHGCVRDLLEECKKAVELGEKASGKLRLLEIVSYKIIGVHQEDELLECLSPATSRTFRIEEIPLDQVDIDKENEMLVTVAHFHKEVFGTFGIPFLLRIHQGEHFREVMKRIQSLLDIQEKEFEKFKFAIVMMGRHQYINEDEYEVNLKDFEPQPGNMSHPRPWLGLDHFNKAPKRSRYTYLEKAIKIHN

IC50: 2770 ± 560 nM
SMILES: CCOC(=O)c1cnn(CC(C)O)c1NC(=O)Nc1cccc(F)c1 (racemic) [STIRUR 41]
